Test results as given in PMC9090415, “Discovery of small molecule inhibitors of Plasmodium falciparum apicoplast DNA polymerase” (Journal of Enzyme Inhibition and Medicinal Chemistry, 2022).

Molecular target: P. falciparum apicoplast DNA polymerase (Pf-apPOL) (Plasmodium falciparum, UniProt Q8ILY1)
Test: Fluorescence-based high-throughput DNA polymerase assay (molecular beacon), primary screen and dose-response
Assay type: biochemical
Settings: for DNA Pol: 90 min, 10 µM
Protocol: The HT assay employs a molecular beacon, a stem-loop DNA template with a Cy3 dye and the Black Hole Quencher on the 3′ and 5′ ends of the DNA, respectively. Pf-apPOL concentration is based on a calculated absorptivity of ε280 = 56750 M^−1 cm^−1. Reactions were carried out at 25 °C, using Corning 3575 […] (well-volume, 20 µL). Assays testing for compound inhibition composed of reaction buffer (pH 7.9 in 50 mM potassium acetate, 20 mM Tris-acetate and 10 mM magnesium acetate), Pf-apPOL (20 nM), DNA substrate (20 nM), dNTPs (6 µM), and compound (10 µM in DMSO). The DNA and nucleotide substrates (dNTPs) were at concentrations of 20 nM and 6 µM, respectively, in the assay. Pf-apPOL was incubated in the reaction buffer with dNTPs and the compound of interest (10 µM, in the assay) at 25 °C for 10 min. The DNA substrate was then added and the reaction was allowed to proceed for 90 min at 25 °C.
Each assay plate contained 16 negative controls (no Pf-apPOL, DMSO present) and 16 positive controls (Pf-apPOL present, no DMSO). The fluorescence of each well was determined using a BioTek Synergy Neo fluorescence plate reader using excitation and emission wavelengths of 555 and 570 nm, respectively.
In the above, Min is the average of fluorescence emission of the negative controls (substrate only), Max the average fluorescence emission from the positive controls (enzyme + substrate), and Test the emission from the assays in the presence of compounds (enzyme + compound + substrates). […] […] The IC50 of each compound was determined using Equation (2): (2) IC50= Vmax/(1+ (I/IC50)^n)
In the above, n measures cooperativity, with n > 1 indicating synergistic binding of more than a single molecule of the compound.
To identify apPOL inhibitors we utilised our previously developed high-throughput DNA polymerase assay. The HT assay is based on a molecular beacon DNA template that forms a stem-loop with a Cy3 dye and the Black Hole Quencher on the 3′ and 5′ ends of the DNA, respectively. DNA polymerase activity extends an annealed primer through the stem region, displacing the fluorophore from the quencher, thereby increasing its fluorescence (Figure 1(A)). The assay accurately recapitulates the kinetic behaviour of apPOL, as measured through more conventional low-throughput gel-based assays. The Z′ factor for the assay described here was 0.9 across all plates (data not shown).
Figure 1. High-throughput screening. (A) The fluorescent-based DNA polymerase assay used to screen the compound libraries. The DNA template strand is a hairpin loop with a primer annealed to the loop. The 3’ end of the primer is 11 bases away from the 6 bp duplex. Strand displacement activity of the DNA polymerase separates the Cy3 dye from the Black hole quencher leading to an increase in fluorescent signal. (B) The high-throughput assay workflow. The DNA polymerase is incubated with […] compound for 10 min prior to addition of the hairpin substrate. The reaction is quenched at 3 different time points and the fluorescent signal is measured and % inhibition is determined using the provided equation.

P. falciparum apicoplast DNA polymerase (Pf-apPOL), sequence (Q8ILY1 entry or part of it): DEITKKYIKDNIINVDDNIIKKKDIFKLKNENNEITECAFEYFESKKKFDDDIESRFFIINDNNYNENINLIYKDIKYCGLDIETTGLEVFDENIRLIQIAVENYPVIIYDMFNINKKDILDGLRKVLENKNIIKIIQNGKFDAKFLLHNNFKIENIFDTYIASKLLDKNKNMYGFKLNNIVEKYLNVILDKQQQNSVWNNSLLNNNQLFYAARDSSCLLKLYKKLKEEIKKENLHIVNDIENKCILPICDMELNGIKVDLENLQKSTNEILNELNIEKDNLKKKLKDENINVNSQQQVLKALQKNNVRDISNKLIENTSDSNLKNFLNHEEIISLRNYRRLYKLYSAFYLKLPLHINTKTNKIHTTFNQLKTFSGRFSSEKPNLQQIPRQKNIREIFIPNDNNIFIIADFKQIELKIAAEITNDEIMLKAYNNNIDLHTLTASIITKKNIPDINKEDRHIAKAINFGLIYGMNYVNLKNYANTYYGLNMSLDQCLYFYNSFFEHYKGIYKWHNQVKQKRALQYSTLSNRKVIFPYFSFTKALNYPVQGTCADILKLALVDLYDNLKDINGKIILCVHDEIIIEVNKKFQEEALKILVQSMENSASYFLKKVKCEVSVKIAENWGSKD

Structure (SMILES): Nc1ncnc(NC2CCCCC2)c1[N+](=O)[O-] [KU0193018]
- % inhibition Apo pol 10' (DRC-1, concentration 2.5): -4.033%
- % inhibition Apol 90' (DRC-1, concentration 2.5): 1.71%
- % inhibition apPOL 180' (DRC-1, concentration 2.5): 7.961%
- % inhibition Apo pol 10' (DRC-1, concentration 5): -4.7638%
- % inhibition Apol 90' (DRC-1, concentration 5): 3.18%
- % inhibition apPOL 180' (DRC-1, concentration 5): 11.4393%
- % inhibition Apo pol 10' (DRC-1, concentration 10): 7.571%
- % inhibition Apol 90' (DRC-1, concentration 10): 18.3925%
- % inhibition apPOL 180' (DRC-1, concentration 10): 32.1574%
- % inhibition Apo pol 10' (DRC-1, concentration 20): 20.9545%
- % inhibition Apol 90' (DRC-1, concentration 20): 38.4286%
- % inhibition apPOL 180' (DRC-1, concentration 20): 56.6751%
- % inhibition Apo pol 10' (DRC-1, concentration 40): 53.9116%
- % inhibition Apol 90' (DRC-1, concentration 40): 70.3163%
- % inhibition apPOL 180' (DRC-1, concentration 40): 83.6838%
- % inhibition Apo pol 10' (DRC-1, concentration 80 (unit not given)): 70.2616%
- % inhibition Apol 90' (DRC-1, concentration 80): 82.4548%
- % inhibition apPOL 180' (DRC-1, concentration 80): 91.4179%
- % inhibition Apo pol 5' (DRC-2, concentration 2.5): -2.47%
- % inhibition Apol 40' (DRC-2, concentration 2.5): -1.57%
- % inhibition ApPOL 90' (DRC-2, concentration 2.5): -2.42%
- % inhibition apPOL 180' (DRC-2, concentration 2.5): -6.58%
- % inhibition Apo pol 5' (DRC-2, concentration 5): 4%
- % inhibition Apol 40' (DRC-2, concentration 5): 3.32%
- % inhibition ApPOL 90' (DRC-2, concentration 5): 2.51%
- % inhibition apPOL 180' (DRC-2, concentration 5): -3.38%
- % inhibition Apo pol 5' (DRC-2, concentration 10): 20%
- % inhibition Apol 40' (DRC-2, concentration 10): 19%
- % inhibition ApPOL 90' (DRC-2, concentration 10): 15%
- % inhibition apPOL 180' (DRC-2, concentration 10): 6%
- % inhibition Apo pol 5' (DRC-2, concentration 20): 37%
- % inhibition Apol 40' (DRC-2, concentration 20): 42%
- % inhibition ApPOL 90' (DRC-2, concentration 20): 38%
- % inhibition apPOL 180' (DRC-2, concentration 20): 26%
- % inhibition Apo pol 5' (DRC-2, concentration 40): 50%
- % inhibition Apol 40' (DRC-2, concentration 40): 64%
- % inhibition ApPOL 90' (DRC-2, concentration 40): 63%
- % inhibition apPOL 180' (DRC-2, concentration 40): 55%
- % inhibition Apo pol 5' (DRC-2, concentration 80): 52%
- % inhibition Apol 40' (DRC-2, concentration 80): 71%
- % inhibition ApPOL 90' (DRC-2, concentration 80): 72%
- % inhibition apPOL 180' (DRC-2, concentration 80): 69%
- DNA Pol (primary screen value of the 186 hits, unit not given): 25
- DNA Pol (primary screen value, head prints only 'DNA Pol'): 25
